The record followed here is patent US20230085307A1, “PYRIDAZINONE COMPOUND AND HERBICIDE” (NISSAN CHEMICAL CORPORATION, priority 2019, published 2023).

Test [1] has as its system lambsquarters. Kind of test: Test Example 5: herbicidal effect by foliage application, plastic box (Table 20, symbol O). The class given is in vivo, lambsquarters (Chenopodium album). As to conditions: foliage application, 320 g/ha, three weeks after application. In a few lines: (§1)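 Foliar spray test: emulsion formulation diluted in water to a set application rate, sprayed onto 14-day-old plants raised in diluvial soil at 25° C to 30° C under glass. Both herbicidal effect and crop effect rated visually three weeks later.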

Test [2] has as its system oval-leafed pondweed. As to the kind of experiment: Test Example 2: herbicidal activity, application during weed generation under submerged conditions (Table 17, symbol C). The class given is in vivo, oval-leafed pondweed (Monochoria vaginalis). The conditions noted are these: AAH 320 g/ha; application during weed generation, submerged conditions. An outline of the steps: (§2)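 Alluvial soil in Wagner pots was flooded to 4 cm depth and sown with the three weeds together; pots were kept in a greenhouse at 25° C. to 30° C. At the one to two leaf stage, an emulsion formulation diluted in water to a set rate went onto the water surface; scored three weeks later.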

The subject of test [3] is oval-leafed pondweed. As to the kind of experiment: Test Example 1: herbicidal activity, application before weed generation under submerged conditions (Table 16, symbol C). The class given is in vivo, oval-leafed pondweed (Monochoria vaginalis). The conditions noted are these: amount of applied herbicide 320 g/ha. An outline of the steps:
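Alluvial soil was flooded to 4 cm depth, weed seeds were sown mixed and 2.5-leaf rice seedlings were transplanted. On sowing day, the compound's emulsion, diluted in water to a set dose, was applied to the water surface. Plants grew at 25–30 °C and were scored 0–5 after three weeks.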

The subject of another test is Japanese bulrush. Kind of test: Test Example 2: herbicidal activity, application during weed generation under submerged conditions (Table 17, symbol B). Format: in vivo, Japanese bulrush (Schoenoplectus juncoides). The conditions noted are these: AAH 320 g/ha; application during weed generation, submerged conditions. In a few lines: as §2
The subject of a further test is wild oat. As to the kind of experiment: Test Example 4: herbicidal effect by soil treatment (Table 19, symbol I). Format: in vivo, wild oat (Avena fatua). As to conditions: amount of applied herbicide 320 g/ha. An outline of the steps: (§3)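 Step 1: sow seeds in sterilized diluvial soil, cover ~1.5 cm. Step 2: spray diluted emulsion onto soil surface at predetermined rate. Step 3: greenhouse, 25–30° C, three weeks. Step 4: grade effect on each plant by earlier criteria.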

A further test relates to false cleavers. Kind of test: Test Example 5: herbicidal effect by foliage application, plastic box (Table 20, symbol Q). Format: in vivo, false cleavers (Galium spurium). The conditions noted are these: foliage application, 320 g/ha, three weeks after application. An outline of the steps:
as §1

The test system of the next test is Italian ryegrass. As to the kind of experiment: Test Example 5: herbicidal effect by foliage application, plastic box (Table 20, symbol K). Format: in vivo, Italian ryegrass (Lolium multiflorum). The conditions noted are these: foliage application, 320 g/ha, three weeks after application. An outline of the steps: as §1
For the next test, the system named is blackgrass. As to the kind of experiment: Test Example 4: herbicidal effect by soil treatment (Table 19, symbol J). The class given is in vivo, blackgrass (Alopecurus myosuroides). The conditions noted are these: amount of applied herbicide 320 g/ha. In a few lines: as §3
The subject of test [4] is chickweed. As to the kind of experiment: Test Example 4: herbicidal effect by soil treatment (Table 19, symbol P). Format: in vivo, common chickweed (Stellaria media). As to conditions: amount of applied herbicide 320 g/ha. An outline of the steps:
as §3

Another test has as its system late watergrass. Kind of test: Test Example 2: herbicidal activity, application during weed generation under submerged conditions (Table 17, symbol A). The class given is in vivo, late watergrass (Echinochloa oryzicola). The conditions noted are these: AAH 320 g/ha; application during weed generation, submerged conditions. In a few lines:
as §2

A further test concerns persian speedwell. As to the kind of experiment: Test Example 5: herbicidal effect by foliage application, plastic box (Table 20, symbol R). Format: in vivo, Persian speedwell (Veronica persica). The conditions noted are these: foliage application, 320 g/ha, three weeks after application. In a few lines:
as §1

The subject of a further test is Chinese sprangletop. Kind of test: Test Example 3: herbicidal effect by foliage application, Wagner pot (Table 18, symbol D). Format: in vivo, chinese sprangletop (Leptochloa chinensis). In a few lines: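 Plants were sown in alluvial soil held under 0.1–0.5 cm standing water and grown 14 days in a greenhouse at 25–30 °C. An emulsifiable formulation, water-diluted to the set dose, was then sprayed onto the foliage, and effects were scored three weeks later using previously defined criteria.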

Test [5] has as its system lambsquarters. As to the kind of experiment: Test Example 4: herbicidal effect by soil treatment (Table 19, symbol O). Format: in vivo, lambsquarters (Chenopodium album). The conditions noted are these: amount of applied herbicide 320 g/ha. An outline of the steps: as §3
Another test relates to redroot pigweed. Kind of test: Test Example 4: herbicidal effect by soil treatment (Table 19, symbol N). The class given is in vivo, redroot pigweed (Amaranthus retroflexus). The conditions noted are these: amount of applied herbicide 320 g/ha. In a few lines: as §3
The subject of test [6] is chickweed. Kind of test: Test Example 5: herbicidal effect by foliage application, plastic box (Table 20, symbol P). Format: in vivo, common chickweed (Stellaria media). The conditions noted are these: foliage application, 320 g/ha, three weeks after application. In a few lines: as §1
In another test the test system is barnyard grass. Kind of test: Test Example 4: herbicidal effect by soil treatment (Table 19, symbol H). The conditions noted are these: amount of applied herbicide 320 g/ha. The class given is in vivo, barnyard grass (Echinochloa crus-galli). In a few lines: as §3
Setting [7] is: amount of applied herbicide 320 g/ha.

For the molecule `CCCC(=O)Oc1c(C)nn(C)c(=O)c1-c1c(-c2ccc(OC(C)C)cc2)sc2cc(F)ccc12` [3-020], the “O: lambsquarters, herbicidal effect grade” value in the test with lambsquarters [1] was 3 (Herbicidal rate of 40% or more and less than 70%). Further, the “herbicidal effect rating, C: oval-leafed pondweed” value (“herbicidal effect rating, C” for short) with oval-leafed pondweed [2] was 2 (Herbicidal rate of 20% or more and less than 40%). Moreover, the “Herbicidal effect, C: oval-leafed pondweed” value (“Herbicidal effect, C” for short) in the test with oval-leafed pondweed [3] was 2 (Herbicidal rate of 20% or more and less than 40%). Further, in the test on Japanese bulrush, the “herbicidal effect rating, B: Japanese bulrush” value (from here on “herbicidal effect rating, B”) is given as 0 (Herbicidal rate of 5% or less (almost no effect)). The “herbicidal effect, I: wild oat” value in the test with wild oat was 0 (Herbicidal rate of 5% or less (almost no effect)). Besides, the “Q: false cleavers, herbicidal effect grade” value in the test with false cleavers is 4 (Herbicidal rate of 70% or more and less than 90%). For the same molecule, the “K: Italian ryegrass, herbicidal effect grade” value in the test on Italian ryegrass is 2 (Herbicidal rate of 20% or more and less than 40%). The “herbicidal effect, J: blackgrass” value with blackgrass is 0 (Herbicidal rate of 5% or less (almost no effect)). In addition, in the test with chickweed [4], the “herbicidal effect, P: chickweed” value is 0 (Herbicidal rate of 5% or less (almost no effect)). Moreover, the “herbicidal effect rating, A: late watergrass” value with late watergrass is 1 (Herbicidal rate of 5% or more and less than 20%). In addition, the “R: persian speedwell, herbicidal effect grade” value in the test on persian speedwell is listed as 5 (Herbicidal rate of 90% or more (almost completely withered)). Besides, in the test on Chinese sprangletop (setting [7]), the “herbicidal effect on D: Chinese sprangletop” value was 3 (Herbicidal rate of 40% or more and less than 70%). Besides, the “herbicidal effect, O: lambsquarters” value in the test on lambsquarters [5] is 0 (Herbicidal rate of 5% or less (almost no effect)). The “herbicidal effect, N: redroot pigweed” value in the test on redroot pigweed is 4 (Herbicidal rate of 70% or more and less than 90%). Moreover, the “P: chickweed, herbicidal effect grade” value in the test with chickweed [6] is recorded as 5 (Herbicidal rate of 90% or more (almost completely withered)). Also, in the test on barnyard grass, the “herbicidal effect, H: barnyard grass” value is 0 (Herbicidal rate of 5% or less (almost no effect)).

In the case of `COc1ccccc1-c1sc2cc(OC3CCCC3)ccc2c1-c1c(O)c(C)nn(C)c1=O` [3-109], the “O: lambsquarters, herbicidal effect grade” value is 3 (Herbicidal rate of 40% or more and less than 70%) in the test on lambsquarters [1]; 5 (Herbicidal rate of 90% or more (almost completely withered)) with lambsquarters [5]. For the same molecule, the “herbicidal effect rating, C” value with oval-leafed pondweed [2] was 2 (Herbicidal rate of 20% or more and less than 40%). Further, the “Herbicidal effect, C” value with oval-leafed pondweed [3] was 5 (Herbicidal rate of 90% or more (almost completely withered)). Further, the “herbicidal effect rating, B” value with Japanese bulrush is 3 (Herbicidal rate of 40% or more and less than 70%). The “I: wild oat, herbicidal effect grade” value in the test on wild oat is 5 (Herbicidal rate of 90% or more (almost completely withered)). Besides, the “Q: false cleavers, herbicidal effect grade” value with false cleavers is 1 (Herbicidal rate of 5% or more and less than 20%). Further, the “K: Italian ryegrass, herbicidal effect grade” value in the test on Italian ryegrass is 4 (Herbicidal rate of 70% or more and less than 90%). Besides, in the test on blackgrass, the “J: blackgrass, herbicidal effect grade” value was 0 (Herbicidal rate of 5% or less (almost no effect)). Besides, the “P: chickweed, herbicidal effect grade” value in the test with chickweed [4] was 1 (Herbicidal rate of 5% or more and less than 20%); with chickweed [6] it was 5 (Herbicidal rate of 90% or more (almost completely withered)). Also, the “herbicidal effect rating, A: late watergrass” value in the test with late watergrass is given as 0 (Herbicidal rate of 5% or less (almost no effect)). For the same molecule, the “R: persian speedwell, herbicidal effect grade” value with persian speedwell is 5 (Herbicidal rate of 90% or more (almost completely withered)). Moreover, the “herbicidal effect on Chinese sprangletop (D)” value in the test with Chinese sprangletop (320 g/ha) is 4 (Herbicidal rate of 70% or more and less than 90%). In the test on redroot pigweed, the “N: redroot pigweed, herbicidal effect grade” value is 5 (Herbicidal rate of 90% or more (almost completely withered)). In addition, in the test with barnyard grass, the “H: barnyard grass, herbicidal effect grade” value is 1 (Herbicidal rate of 5% or more and less than 20%).

For the molecule `Cc1ccc2oc(-c3ccc4c(c3)OCCO4)c(-c3c(O)c(C)nn(C)c3=O)c2c1` [9-012], the “herbicidal effect on lambsquarters (O)” value in the test on lambsquarters [1] is 3 (Herbicidal rate of 40% or more and less than 70%). Besides, in the test on oval-leafed pondweed [2], the “herbicidal effect rating, C” value is 5 (Herbicidal rate of 90% or more (almost completely withered)). For the same molecule, the “Herbicidal effect, C” value in the test on oval-leafed pondweed [3] is on record as 5 (Herbicidal rate of 90% or more (almost completely withered)). In addition, in the test with Japanese bulrush, the “herbicidal effect rating, B” value was 4 (Herbicidal rate of 70% or more and less than 90%). For the same molecule, the “I: wild oat, herbicidal effect grade” value with wild oat is recorded as 0 (Herbicidal rate of 5% or less (almost no effect)). Also, in the test on false cleavers, the “herbicidal effect on false cleavers (Q)” value was 3 (Herbicidal rate of 40% or more and less than 70%). Moreover, the “herbicidal effect on Italian ryegrass (K)” value with Italian ryegrass was 5 (Herbicidal rate of 90% or more (almost completely withered)). In the test on blackgrass, the “J: blackgrass, herbicidal effect grade” value was 0 (Herbicidal rate of 5% or less (almost no effect)). The “P: chickweed, herbicidal effect grade” value with chickweed [4] was 3 (Herbicidal rate of 40% or more and less than 70%). In addition, the “herbicidal effect rating, A: late watergrass” value in the test with late watergrass was 1 (Herbicidal rate of 5% or more and less than 20%). For the same molecule, in the test with persian speedwell, the “herbicidal effect on persian speedwell (R)” value is 5 (Herbicidal rate of 90% or more (almost completely withered)). In addition, the “Herbicidal effect on D (Chinese sprangletop), foliage application” value in the test on Chinese sprangletop (setting [7]) is 0 (Herbicidal rate of 5% or less (almost no effect)). In addition, the “O: lambsquarters, herbicidal effect grade” value in the test on lambsquarters [5] was 3 (Herbicidal rate of 40% or more and less than 70%). Further, the “N: redroot pigweed, herbicidal effect grade” value with redroot pigweed was 3 (Herbicidal rate of 40% or more and less than 70%). The “H: barnyard grass, herbicidal effect grade” value in the test on barnyard grass was 2 (Herbicidal rate of 20% or more and less than 40%).

In the case of `CCCC(=O)Oc1c(C)nn(C)c(=O)c1-c1c(-c2ccc3c(c2)OCCO3)oc2ccc(C)cc12` [9-013], the “herbicidal effect on lambsquarters (O)” value in the test on lambsquarters [1] was 3 (Herbicidal rate of 40% or more and less than 70%). Besides, the “herbicidal effect rating, C” value in the test with oval-leafed pondweed [2] is recorded as 5 (Herbicidal rate of 90% or more (almost completely withered)). The “Herbicidal effect, C” value with oval-leafed pondweed [3] was 4 (Herbicidal rate of 70% or more and less than 90%). Moreover, the “herbicidal effect rating, B” value in the test with Japanese bulrush is 0 (Herbicidal rate of 5% or less (almost no effect)). In the test with wild oat, the “I: wild oat, herbicidal effect grade” value is recorded as 0 (Herbicidal rate of 5% or less (almost no effect)). The “herbicidal effect on false cleavers (Q)” value in the test on false cleavers is reported as 0 (Herbicidal rate of 5% or less (almost no effect)). In addition, the “herbicidal effect on Italian ryegrass (K)” value in the test on Italian ryegrass is 2 (Herbicidal rate of 20% or more and less than 40%). Further, the “J: blackgrass, herbicidal effect grade” value with blackgrass is listed as 0 (Herbicidal rate of 5% or less (almost no effect)). Moreover, in the test on chickweed [4], the “P: chickweed, herbicidal effect grade” value is on record as 0 (Herbicidal rate of 5% or less (almost no effect)). In addition, the “herbicidal effect rating, A: late watergrass” value with late watergrass is recorded as 0 (Herbicidal rate of 5% or less (almost no effect)). Moreover, the “herbicidal effect on persian speedwell (R)” value with persian speedwell was 5 (Herbicidal rate of 90% or more (almost completely withered)). Further, in the test with Chinese sprangletop (setting [7]), the “Herbicidal effect on D (Chinese sprangletop), foliage application” value is given as 0 (Herbicidal rate of 5% or less (almost no effect)). Moreover, in the test on lambsquarters [5], the “O: lambsquarters, herbicidal effect grade” value was 0 (Herbicidal rate of 5% or less (almost no effect)). Also, the “N: redroot pigweed, herbicidal effect grade” value in the test on redroot pigweed is 3 (Herbicidal rate of 40% or more and less than 70%). The “H: barnyard grass, herbicidal effect grade” value with barnyard grass is 1 (Herbicidal rate of 5% or more and less than 20%).
